The test system of assay [1] is keratinocytes. The experiment in a line: Lipid production in keratinocytes, Oil Red O staining. Format: cell-based. The following applies: 2.5 uM, 48 hours, compared to DMSO control, FIG. 1. An excerpt:
FIG. 1 is a photograph of keratinocytes treated with troglitazone and stained for lipids.

Assay [2] has as its system human preadipocytes. The experiment in a line: Lipid production in preadipocytes, Oil Red O staining. Format: cell-based. As to conditions: 1.1 uM, about 48 hours, FIG. 2 and FIG. 3. An excerpt:
FIG. 2 is a photograph of human preadipocytes treated with troglitazone and stained for lipids. FIG. 3 is a photograph of human preadipocytes treated with troglitazone and stained for lipids.

From patent US20110150798A1, “COMPOSITIONS AND METHODS FOR INCREASING CELLULAR FAR AND BLEACHING SKIN” (priority 2009, published 2011) come the findings set out here.

Consider `Cc1c(C)c2c(c(C)c1O)CCC(C)(COc1ccc(CC3SC(=O)NC3=O)cc1)O2` (racemic) [troglitazone, (RS)-5-(4-[(6-hydroxy-2,5,7,8-tetramethylchroman-2-yl)methoxy]benzyl)thiazolidine-2,4-dione], for which the “lipid production in the cells (lipid droplets stained with Oil Red O)” value in assay [1] is reported as “increase in lipid production”. For the same molecule, the “lipid production (quantity and size of lipid droplets stained with Oil Red O)” value in assay [2] was “increase in the lipid production”.
